“And” between values parts separate entries of the source, which are not always exact repeats. Equal entries are not always repeated. Inconclusive results and toxic doses are left out. No stated cut-off is given here; in the data, active means T/C of 150% or more; inactive means T/C below 125%.
Test system: L1210 leukemia ip in BDF1 mice, survival T/C
Test: NCI In Vivo Anticancer Drug Screen. Data for tumor model L1210 Leukemia (intraperitoneal) in B6D2F1 (BDF1) mice
Conditions: endpoint: mean survival time, higher = longer survival
Procedure, shortened: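 Mice bearing the transplanted tumor received compound or vehicle. Survival of the treated group was divided by that of the vehicle-treated control group to give the ratio.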

Measured: T/C

OC(c1ccccc1)(c1ccccc1)C1C(=C(c2ccccc2)c2ccccc2)C1c1ccccc1 (configuration not stated)
inactive: dose: 100.0 mg/kg/injection, schedule: Q01DX001 (ip), vehicle: steriod suspending solution 104 % of control | dose: 200.0 mg/kg/injection, schedule: Q01DX001 (ip), vehicle: steriod suspending solution 93 % of control | dose: 400.0 mg/kg/injection, schedule: Q01DX001 (ip), vehicle: steriod suspending solution 95 % of control

COC(=O)[C@@H](O)[C@](O)(CCC(C)C)C(=O)O[C@@H]1C(OC)=C[C@]23CCCN2CCc2cc4c(cc2[C@H]13)OCO4
inactive: dose: 0.12 mg/kg/injection, schedule: Q03HX024 (ip), vehicle: saline 98 % of control | dose: 0.25 mg/kg/injection, schedule: Q01DX009 (ip), vehicle: saline 108 % of control | dose: 0.25 mg/kg/injection, schedule: Q03HX008 (ip), vehicle: saline 106 % of control | dose: 0.25 mg/kg/injection, schedule: Q03HX016 (ip), vehicle: saline 101 % of control | dose: 0.25 mg/kg/injection, schedule: Q03HX024 (ip), vehicle: saline 107 % of control | dose: 0.5 mg/kg/injection, schedule: Q01DX006 (iv), vehicle: saline 100 % of control | dose: 0.5 mg/kg/injection, schedule: Q01DX009 (ip), vehicle: saline 107 % of control | dose: 0.5 mg/kg/injection, schedule: Q01DX009 (oral), vehicle: saline 103 % of control | dose: 0.5 mg/kg/injection, schedule: Q01DX009 (sc), vehicle: saline 104 % of control | dose: 0.5 mg/kg/injection, schedule: Q03HX008 (ip), vehicle: saline 104 % of control | dose: 0.5 mg/kg/injection, schedule: Q03HX016 (ip), vehicle: saline 108 % of control | dose: 0.5 mg/kg/injection, schedule: Q03HX024 (ip), vehicle: saline 100 % of control | dose: 0.93 mg/kg/injection, schedule: Q01DX009 (ip), vehicle: water 106 % of control | dose: 1.0 mg/kg/injection, schedule: Q01DX006 (iv), vehicle: saline 102 % of control | dose: 1.0 mg/kg/injection, schedule: Q01DX009 (ip), vehicle: saline 115 % of control | dose: 1.0 mg/kg/injection, schedule: Q01DX009 (oral), vehicle: saline 93 % of control | dose: 1.0 mg/kg/injection, schedule: Q01DX009 (sc), vehicle: saline 104 % of control | dose: 1.0 mg/kg/injection, schedule: Q03HX008 (ip), vehicle: saline 101 % of control and 106 % of control | dose: 1.0 mg/kg/injection, schedule: Q03HX016 (ip), vehicle: saline 101 % of control and 106 % of control | dose: 1.0 mg/kg/injection, schedule: Q03HX024 (ip), vehicle: saline 100 % of control and 114 % of control | dose: 1.0 mg/kg/injection, schedule: Q04DX003 (ip), vehicle: saline 106 % of control | dose: 1.85 mg/kg/injection, schedule: Q01DX009 (ip), vehicle: water 109 % of control | dose: 1.87 mg/kg/injection, schedule: Q01DX009 (ip), vehicle: water 109 % of control | dose: 1.88 mg/kg/injection, schedule: Q01DX009 (ip), vehicle: water 114 % of control | dose: 2.0 mg/kg/injection, schedule: Q01DX001 (ip), vehicle: saline 102 % of control | dose: 2.0 mg/kg/injection, schedule: Q01DX001 (iv), vehicle: saline 102 % of control | dose: 2.0 mg/kg/injection, schedule: Q01DX001 (oral), vehicle: saline 97 % of control | dose: 2.0 mg/kg/injection, schedule: Q01DX001 (sc), vehicle: saline 104 % of control | dose: 2.0 mg/kg/injection, schedule: Q01DX006 (iv), vehicle: saline 103 % of control and 108 % of control | dose: 2.0 mg/kg/injection, schedule: Q01DX009 (ip), vehicle: saline 107 % of control and 111 % of control | dose: 2.0 mg/kg/injection, schedule: Q01DX009 (oral), vehicle: saline 108 % of control | dose: 2.0 mg/kg/injection, schedule: Q01DX009 (sc), vehicle: saline 106 % of control | dose: 2.0 mg/kg/injection, schedule: Q03HX008 (ip), vehicle: saline 105 % of control and 113 % of control | dose: 2.0 mg/kg/injection, schedule: Q03HX016 (ip), vehicle: saline 96 % of control and 107 % of control | dose: 2.0 mg/kg/injection, schedule: Q03HX024 (ip), vehicle: saline 104 % of control | dose: 2.0 mg/kg/injection, schedule: Q04DX003 (ip), vehicle: saline 106 % of control | dose: 2.0 mg/kg/injection, schedule: Q08DX002 (ip), vehicle: saline 98 % of control | dose: 4.0 mg/kg/injection, schedule: Q01DX001 (ip), vehicle: saline 106 % of control | dose: 4.0 mg/kg/injection, schedule: Q01DX001 (iv), vehicle: saline 101 % of control | dose: 4.0 mg/kg/injection, schedule: Q01DX001 (oral), vehicle: saline 100 % of control | dose: 4.0 mg/kg/injection, schedule: Q01DX001 (sc), vehicle: saline 114 % of control | dose: 4.0 mg/kg/injection, schedule: Q01DX006 (iv), vehicle: saline 103 % of control and 111 % of control | dose: 4.0 mg/kg/injection, schedule: Q01DX009 (ip), vehicle: saline 116 % of control and 124 % of control | dose: 4.0 mg/kg/injection, schedule: Q01DX009 (oral), vehicle: saline 113 % of control and 114 % of control and 120 % of control | dose: 4.0 mg/kg/injection, schedule: Q01DX009 (sc), vehicle: saline 113 % of control | dose: 4.0 mg/kg/injection, schedule: Q03HX008 (ip), vehicle: saline 114 % of control | dose: 4.0 mg/kg/injection, schedule: Q03HX016 (ip), vehicle: saline 103 % of control | dose: 4.0 mg/kg/injection, schedule: Q04DX003 (ip), vehicle: saline 110 % of control and 113 % of control | dose: 4.0 mg/kg/injection, schedule: Q08DX002 (ip), vehicle: saline 108 % of control | dose: 5.0 mg/kg/injection, schedule: Q01DX009 (ip), vehicle: saline 116 % of control | dose: 8.0 mg/kg/injection, schedule: Q01DX001 (ip), vehicle: saline 104 % of control and 105 % of control | dose: 8.0 mg/kg/injection, schedule: Q01DX001 (iv), vehicle: saline 106 % of control and 115 % of control | dose: 8.0 mg/kg/injection, schedule: Q01DX001 (oral), vehicle: saline 100 % of control | dose: 8.0 mg/kg/injection, schedule: Q01DX001 (sc), vehicle: saline 110 % of control and 115 % of control | dose: 8.0 mg/kg/injection, schedule: Q01DX006 (iv), vehicle: saline 120 % of control | dose: 8.0 mg/kg/injection, schedule: Q01DX009 (oral), vehicle: saline 114 % of control | dose: 8.0 mg/kg/injection, schedule: Q01DX009 (sc), vehicle: saline 122 % of control | dose: 8.0 mg/kg/injection, schedule: Q04DX003 (ip), vehicle: saline 101 % of control and 107 % of control | dose: 8.0 mg/kg/injection, schedule: Q08DX002 (ip), vehicle: saline 110 % of control | dose: 10.0 mg/kg/injection, schedule: Q01DX009 (ip), vehicle: saline 116 % of control | dose: 16.0 mg/kg/injection, schedule: Q01DX001 (ip), vehicle: saline 108 % of control and 112 % of control | dose: 16.0 mg/kg/injection, schedule: Q01DX001 (iv), vehicle: saline 106 % of control and 107 % of control | dose: 16.0 mg/kg/injection, schedule: Q01DX001 (oral), vehicle: saline 107 % of control and 112 % of control | dose: 16.0 mg/kg/injection, schedule: Q01DX001 (sc), vehicle: saline 111 % of control and 118 % of control | dose: 16.0 mg/kg/injection, schedule: Q01DX006 (iv), vehicle: saline 122 % of control | dose: 16.0 mg/kg/injection, schedule: Q01DX009 (sc), vehicle: saline 89 % of control | dose: 16.0 mg/kg/injection, schedule: Q04DX003 (ip), vehicle: saline 100 % of control | dose: 16.0 mg/kg/injection, schedule: Q08DX002 (ip), vehicle: saline 106 % of control and 111 % of control | dose: 20.0 mg/kg/injection, schedule: Q01DX009 (ip), vehicle: saline 115 % of control | dose: 32.0 mg/kg/injection, schedule: Q01DX001 (ip), vehicle: saline 110 % of control | dose: 32.0 mg/kg/injection, schedule: Q01DX001 (oral), vehicle: saline 108 % of control and 118 % of control | dose: 32.0 mg/kg/injection, schedule: Q04DX003 (ip), vehicle: saline 107 % of control | dose: 32.0 mg/kg/injection, schedule: Q08DX002 (ip), vehicle: saline 102 % of control

CCOC(OCC)c1cc(=O)[nH]c(N)n1
inactive: dose: 100.0 mg/kg/injection, schedule: Q01DX009 (ip), vehicle: Klucel (hydroxypropylcellulose) (HPC) 101 % of control | dose: 200.0 mg/kg/injection, schedule: Q01DX009 (ip), vehicle: Klucel (hydroxypropylcellulose) (HPC) 97 % of control | dose: 400.0 mg/kg/injection, schedule: Q01DX009 (ip), vehicle: Klucel (hydroxypropylcellulose) (HPC) 96 % of control

CC(=O)OCC1OC(Oc2ccc([N+](=O)[O-])cc2[N+](=O)[O-])C(OC(C)=O)C(OC(C)=O)C1OC(C)=O (configuration not stated)
inactive: dose: 100.0 mg/kg/injection, schedule: Q04DX003 (ip), vehicle: saline with Tween-80 100 % of control | dose: 200.0 mg/kg/injection, schedule: Q04DX003 (ip), vehicle: saline with Tween-80 91 % of control | dose: 400.0 mg/kg/injection, schedule: Q04DX003 (ip), vehicle: saline with Tween-80 91 % of control
